Laboratory results: patent publication US9067974B2, “Polymyxin derivatives and uses thereof” (priority 2006, dated 2015)
Bridge positions count the residues as written; N and C are the ends. Square brackets hold non-standard residues; d marks the D form. Peptide text beside a SMILES is read from it. * marks the point of attachment. Octanoyl = CCCCCCCC(=O)*; Dab = NCC[C@H](N)C(=O)O; Abu = CC[C@H](N)C(=O)O

What was measured:
E. coli IH3080 (K1:O18) = assay: Well diffusion growth inhibition on LB agar plates (direct antibacterial activity); type: cell-based, Escherichia coli
In short: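 Growth inhibition of encapsulated E. coli IH3080 (K1:O18) was measured by well diffusion on LB agar plates. A suspension of about 10^8 cells/ml in 0.9% NaCl, made from an overnight LB agar culture, was spread over the plates and the excess removed. Once dry, five 2 mm wells were drilled per plate and test solutions added, with 0.9% NaCl as control. After 18 h at 37° C, inhibition zone diameters were measured and converted to surface areas in square mm.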

E. coli IH3080 = assay: Sensitization to rifampin: well diffusion growth inhibition on LB plates containing rifampin; type: cell-based, Escherichia coli; conditions: 4 μg of compound
A. baumannii ATCC 19606 = assay: as above; type: cell-based, Acinetobacter baumannii; conditions: 4 μg of compound
[1] = tested on: Ps. aeruginosa ATCC 27853; assay: as above; type: cell-based, Pseudomonas aeruginosa; conditions: 4 μg of compound
[2] = Two-week intravenous toxicity study in young rats; type: in vivo
Procedure: Toxicity in young rats (weighing approx. 150 g in the beginning of the study) was determined by administering doses (1, 2, 4, 8, 16, and 32 mg/kg per day) of NAB7061 as well as the control compound polymyxin B intravenously twice (2) a day for two weeks. A group of ten (10) rats was studied for each dosis regimen. Clinical observations were made daily, the body weight measured twice weekly, and the food consumption twice weekly. In the end of week 2, all animals were sacrificed.
Histopathology of kidneys was performed for each animals and histopathology of all tissues was performed in three high-dose groups receiving NAB7061.

## CCCCCCCC(=O)N[C@H](C(=O)N[C@@H](CC)C(=O)N[C@H]1CCNC(=O)[C@H]([C@@H](C)O)NC(=O)[C@H](CCN)NC(=O)[C@H](CCN)NC(=O)[C@H](CC(C)C)NC(=O)[C@@H](Cc2ccccc2)NC(=O)[C@H](CCN)NC1=O)[C@@H](C)O [NAB 7061, OA-Thr-Abu-cy[Dab-Dab-DPhe-Leu-Dab-Dab-Thr-]] (Octanoyl-T[Abu][Dab][Dab][dF]L[Dab][Dab]T; lactam 3-C)
E. coli IH3080 (K1:O18); 4 μg of compound per well
  Antibacterial activity (growth inhibition area around a well): 0 square millimeters
E. coli IH3080 (K1:O18); 10 μg of compound per well
  Antibacterial activity (growth inhibition area around a well): 50 square millimeters
E. coli IH3080; rifampin 0 μg/ml
  Antibacterial activity in the presence of rifampin (growth inhibition area around a well): 0 square millimeters
E. coli IH3080; rifampin 0.1 μg/ml
  Antibacterial activity in the presence of rifampin (growth inhibition area around a well): 113 square millimeters
E. coli IH3080; rifampin 1.0 μg/ml
  Antibacterial activity in the presence of rifampin (growth inhibition area around a well): 155 square millimeters
A. baumannii ATCC 19606; rifampin 0 μg/ml
  Antibacterial activity in the presence of rifampin (growth inhibition area around a well): 0 square millimeters
A. baumannii ATCC 19606; rifampin 0.1 μg/ml
  Antibacterial activity in the presence of rifampin (growth inhibition area around a well): 28 square millimeters
A. baumannii ATCC 19606; rifampin 0.3 μg/ml
  Antibacterial activity in the presence of rifampin (growth inhibition area around a well): 50 square millimeters
[1]; rifampin 0 μg/ml
  Antibacterial activity in the presence of rifampin (growth inhibition area around a well): 0 square millimeters
[1]; rifampin 0.1 μg/ml
  Antibacterial activity in the presence of rifampin (growth inhibition area around a well): 0 square millimeters
[1]; rifampin 0.3 μg/ml
  Antibacterial activity in the presence of rifampin (growth inhibition area around a well): 0 square millimeters
[2]; rat, in vivo, 16 mg/kg/day
  Rise of blood urea nitrogen (BUN) versus control or low dose group: no such a rise was found
[2]; rat, in vivo, iv
  Lowest dose that negatively influenced the body weight gain: 8 mg/kg per day
[2]; rats, doses 1 to 32 mg/kg per day intravenously for two weeks
  Survival throughout the study: all rats receiving NAB7061 remained alive throughout the study
[2]; rats, two weeks intravenous dosing
  General pathology and histopathology of organs and kidneys: No NAB7061-related pathological findings were found
